# Literature values as cited in patent publication US20260237528A1, “DRUG COMBINATIONS SCREENING” (Hoffmann-La Roche Inc., priority 2023, published 2026).
# Tested on: tumour growth
# Details: tested alone
row,Compound,anti-tumour activity
1,N=C(N)c1ccc(OCCCCCOc2ccc(C(=N)N)cc2)cc1 [pentamidine],Neither of these drugs showed any anti-tumour activity when tested alone
2,CN(C)CCCN1c2ccccc2Sc2ccc(Cl)cc21 [chlorpromazine],Neither of these drugs showed any anti-tumour activity when tested alone
